Results: patent publication US20230286958A1, “PLASMA KALLIKREIN INHIBITORS” (Merck Sharp & Dohme LLC, priority 2020, published 2023)

Experiments:
human Factor XIa = human Factor XIa (Homo sapiens (Human), UniProt P03951); experiment: Factor XIa Assay (fluorogenic substrate GPR-AFC); format: biochemical; details: Factor XIa (FXIa)
Human plasma kallikrein = Human plasma kallikrein (Homo sapiens (Human), UniProt P03952); experiment: Kallikrein Assay (fluorogenic substrate Acetyl-K-P-R-AFC); format: biochemical; details: Plasma Kallikrein (PKal)
Sequence of Human plasma kallikrein (P03952 391-638): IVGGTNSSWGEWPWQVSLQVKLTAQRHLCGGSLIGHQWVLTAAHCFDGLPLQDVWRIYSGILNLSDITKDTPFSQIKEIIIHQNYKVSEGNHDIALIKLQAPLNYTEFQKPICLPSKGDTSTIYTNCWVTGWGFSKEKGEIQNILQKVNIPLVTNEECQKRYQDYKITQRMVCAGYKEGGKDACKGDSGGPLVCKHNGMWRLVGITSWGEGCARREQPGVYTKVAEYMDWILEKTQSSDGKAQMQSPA
Sequence of Human plasma kallikrein (P03952 20-390 partner): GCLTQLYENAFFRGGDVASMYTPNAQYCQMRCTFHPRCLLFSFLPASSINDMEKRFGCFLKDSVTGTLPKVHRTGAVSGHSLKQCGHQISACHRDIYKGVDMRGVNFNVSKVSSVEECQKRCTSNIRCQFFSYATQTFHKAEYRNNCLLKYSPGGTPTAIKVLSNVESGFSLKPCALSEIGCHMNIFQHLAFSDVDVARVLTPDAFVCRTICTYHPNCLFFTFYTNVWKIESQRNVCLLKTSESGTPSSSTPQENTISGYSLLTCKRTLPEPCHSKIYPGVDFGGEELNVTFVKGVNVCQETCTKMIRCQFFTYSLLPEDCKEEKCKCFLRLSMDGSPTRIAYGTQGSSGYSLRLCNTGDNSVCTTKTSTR
Method in brief: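 Ki is derived from IC50 with the Cheng-Prusoff equation, and IC50 from the inflection point of a four-parameter logistic curve. The rate of AFC release is read with 0.5 nM purified enzyme and […] substrate at room temperature or 37 °C.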

Sequence of human Factor XIa (P03951 388-625 limits assumed): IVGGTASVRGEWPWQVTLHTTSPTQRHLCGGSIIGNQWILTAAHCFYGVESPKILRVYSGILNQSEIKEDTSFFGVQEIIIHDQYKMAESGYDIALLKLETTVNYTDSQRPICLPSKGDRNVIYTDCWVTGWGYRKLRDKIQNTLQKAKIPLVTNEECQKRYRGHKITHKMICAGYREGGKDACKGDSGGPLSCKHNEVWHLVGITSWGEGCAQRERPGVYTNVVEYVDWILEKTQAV
Sequence of human Factor XIa (P03951 19-387 partner limits assumed): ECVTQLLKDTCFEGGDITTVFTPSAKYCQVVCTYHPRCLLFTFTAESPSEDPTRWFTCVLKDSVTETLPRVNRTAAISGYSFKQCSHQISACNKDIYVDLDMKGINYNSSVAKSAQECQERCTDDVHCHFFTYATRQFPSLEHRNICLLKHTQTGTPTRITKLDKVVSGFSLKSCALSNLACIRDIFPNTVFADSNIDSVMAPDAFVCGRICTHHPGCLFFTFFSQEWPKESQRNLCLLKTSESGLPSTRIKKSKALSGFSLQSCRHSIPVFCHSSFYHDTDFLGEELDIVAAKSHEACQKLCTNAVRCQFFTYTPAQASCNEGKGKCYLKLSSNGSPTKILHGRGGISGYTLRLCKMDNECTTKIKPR

IC50 (human Factor XIa) [nM] | IC50 (Human plasma kallikrein) [nM] | SMILES
53 | 0.2 | Cc1cc(Cn2cc(NC(=O)c3nc(-c4c(C(F)F)ccc(Cl)c4F)cnc3C)cn2)cnc1N1C[C@H]2C[C@H]2C1=O [Example 41, 6-(3-Chloro-6-(difluoromethyl)-2-fluorophenyl)-3-methyl-N-(1-((5-methyl-6-((1R,5S)-2-oxo-3-azabicyclo[3.1.0]hexan-3-yl)pyridin-3-yl)methyl)-1H-pyrazol-4-yl)pyrazine-2-carboxamide]
4670 | 6.1 | Cc1c(C(C)n2cc(NC(=O)c3cncc(-c4c(C(F)F)ccc(Cl)c4F)n3)cn2)cnc(N2C[C@H]3C[C@H]3C2=O)c1F (stereo partly drawn) [Example 45, 6-(3-Chloro-6-(difluoromethyl)-2-fluorophenyl)-N (1-(1-(5-fluoro-4-methyl-6-((1R,5S)-2-oxo-3-azabicyclo[3.1.0]hexan-3-yl)pyridin-3-yl)ethyl)-1H-pyrazol-4-yl)pyrazine-2-carboxamide]
755 | 0.9 | Cc1ncc(-c2c(C(F)F)ccc(Cl)c2F)nc1C(=O)Nc1cnn(Cc2cnc(N3C[C@H]4C[C@H]4C3=O)c(C)n2)c1 [Example 46, 6-(3-Chloro-6-(difluoromethyl)-2-fluorophenyl)-3-methyl-N-(1-((6-methyl-5-((1R,5S)-2-oxo-3-azabicyclo[3.1.0]hexan-3-yl)pyrazin-2-yl)methyl)-1H-pyrazol-4-yl)pyrazine-2-carboxamide]
1150 | 2.5 | Cc1nc(Cn2cc(NC(=O)c3cncc(-c4c(C(F)F)ccc(Cl)c4F)n3)cn2)cnc1N1C[C@H]2C[C@H]2C1=O [Example 47, 6-(3-Chloro-6-(difluoromethyl)-2-fluorophenyl)-N-(1-((6-methyl-5-((1R,5S)-2-oxo-3-azabicyclo[3.1.0]hexan-3-yl)pyrazin-2-yl)methyl)-1H-pyrazol-4-yl)pyrazine-2-carboxamide]
> 10000 | 0.6 | Cc1c(Cn2cc(NC(=O)c3cncc(-c4c(C(F)F)ccc(Cl)c4F)n3)cn2)ccc(N2C[C@H]3C[C@H]3C2=O)c1C [Example 48]
423 | 3.5 | COc1cc(Cn2cc(NC(=O)c3cncc(-c4c(C(F)F)ccc(Cl)c4F)n3)cn2)cnc1N1C[C@H]2C[C@H]2C1=O [Example 49, 6-(3-Chloro-6-(difluoromethyl)-2-fluorophenyl)-N-(1-((5-methoxy-6-((1R,5S)-2-oxo-3-azabicyclo[3.1.0]hexan-3-yl)pyridin-3-yl)methyl)-1H-pyrazol-4-yl)pyrazine-2-carboxamide]
2120 | 5.5 | O=C(Nc1cnn(Cc2cnc(N3C[C@H]4C[C@H]4C3=O)c(F)c2)c1)c1cncc(-c2c(C(F)F)ccc(Cl)c2F)n1 [Example 50, 6-(3-Chloro-6-(difluoromethyl)-2-fluorophenyl)-N-(1-((5-fluoro-6-((1R,5S)-2-oxo-3-azabicyclo[3.1.0]hexan-3-yl)pyridin-3-yl)methyl)-1H-pyrazol-4-yl)pyrazine-2-carboxamide]
1280 | 2.4 | Cc1nc(N2C[C@H]3C[C@H]3C2=O)ncc1C1(n2cc(NC(=O)c3nc(-c4c(C(F)F)ccc(Cl)c4F)cnc3C)cn2)CC1 [Example 54, 6-(3-Chloro-6-(difluoromethyl)-2-fluorophenyl)-3-methyl-N(1-(1-(4-methyl-2-((1R,5S)-2-oxo-3-azabicyclo[3.1.0]hexan-3-yl)pyrimidin-5-yl)cyclopropyl)-1H-pyrazol-4-yl)pyrazine-2-carboxamide]
1890 | 4.9 | Cc1cc(N2C[C@H]3C[C@H]3C2=O)ncc1Cn1cc(NC(=O)c2cncc(-c3c(C(F)F)ccc(Cl)c3F)n2)cn1 [Example 57, 6-(3-Chloro-6-(difluoromethyl)-2-fluorophenyl)-N-(1-((4-methyl-6-((1R,5S)-2-oxo-3-azabicyclo[3.1.0]hexan-3-yl)pyridin-3-yl)methyl)-1H-pyrazol-4-yl)pyrazine-2-carboxamide]
> 10000 | 1.7 | Cc1nc(Cn2cc(NC(=O)c3nc(-c4c(C(F)F)ccc(Cl)c4F)cnc3C)cn2)ccc1N1C[C@H]2C[C@H]2C1=O [Example 63, 6-(3-Chloro-6-(difluoromethyl)-2-fluorophenyl)-3-methyl-N-(1-((6-methyl-5-((1R,SS)-2-oxo-3-azabicyclo[3.1.0]hexan-3-yl)pyridin-2-yl)methyl)-1H-pyrazol-4-yl)pyrazine-2-carboxamide]
> 10000 | 3.4 | Cc1nc(Cn2cc(NC(=O)c3cncc(-c4c(C(F)F)ccc(Cl)c4F)n3)cn2)ccc1N1C[C@H]2C[C@H]2C1=O [Example 64, 6-(3-Chloro-6-(difluoromethyl)-2-fluorophenyl)-N-(1-((6-methyl-5-((1R,5S)-2-oxo-3-azabicyclo[3.1.0]hexan-3-yl)pyridin-2-yl)methyl)-1H-pyrazol-4-yl)pyrazine-2-carboxamide]
> 10000 | 35.7 | Cc1cc(Cn2cc(NC(=O)c3cncc(-c4c(C(F)F)ccc(Cl)c4F)n3)cn2)ncc1N1C[C@H]2C[C@H]2C1=O [Example 65, 6-(3-Chloro-6-(difluoromethyl)-2-fluorophenyl)-N-(1-((4-methyl-5-((1R,5S)-2-oxo-3-azabicyclo[3.1.0]hexan-3-yl)pyridin-2-yl)methyl)-1H-pyrazol-4-yl)pyrazine-2-carboxamide]
94 | 1.8 | Cc1nc(N2C[C@H]3C[C@H]3C2=O)ncc1Cn1cc(NC(=O)c2nc(-c3c(C(F)F)ccc(Cl)c3F)cc(=O)n2C)cn1 [Example 81, 4-(3-Chloro-6-(difluoromethyl)-2-fluorophenyl)-1-methyl-N-(1-((4-methyl-2-((1R,5S)-2-oxo-3-azabicyclo[3.1.0]hexan-3-yl)pyrimidin-5-yl)methyl)-1H-pyrazol-4-yl)-6-oxo-1,6-dihydropyrimidine-2-carboxamide]
935 | 1.8 | Cc1ncc(-c2c(C(F)F)ccc(Cl)c2F)nc1C(=O)Nc1cnn(Cc2cnc(N3C[C@H]4C[C@H]4C3=O)c(F)c2)c1 [Example 82, 6-(3-Chloro-6-(difluoromethyl)-2-fluorophenyl)-N-(1-((5-fluoro-6-((1R,5S)-2-oxo-3-azabicyclo[3.1.0]hexan-3-yl)pyridin-3-yl)methyl)-1H-pyrazol-4-yl)-3-methylpyrazine-2-carboxamide]
259 | 3.4 | Cc1cc(Cn2cc(NC(=O)c3nc(-c4c(C(F)F)ccc(Cl)c4F)cnc3C)cn2)nnc1N1C[C@H]2C[C@H]2C1=O [Example 83, 6-(3-Chloro-6-(difluoromethyl)-2-fluorophenyl)-3-methyl-N-(1-((5-methyl-6-((1R,5S)-2-oxo-3-azabicyclo[3.1.0]hexan-3-yl)pyridazin-3-yl)methyl)-1H-pyrazol-4-yl)pyrazine-2-carboxamide]
5710 | 20.7 | Cc1cc(N2C[C@H]3C[C@H]3C2=O)nnc1Cn1cc(NC(=O)c2nc(-c3c(C(F)F)ccc(Cl)c3F)cnc2C)cn1 [Example 84, 6-(3-Chloro-6-(difluoromethyl)-2-fluorophenyl)-3-methyl-N-(1-((4-methyl-6-((1R,5S)-2-oxo-3-azabicyclo[3.1.0]hexan-3-yl)pyridazin-3-yl)methyl)-1H-pyrazol-4-yl)pyrazine-2-carboxamide]
2070 | 10.1 | Cc1nc(N2C[C@H]3C[C@H]3C2=O)ncc1Cn1cc(NC(=O)c2nc(-c3c(S(C)(=O)=O)ccc(Cl)c3F)cnc2C)cn1 [Example 85, 6-(3 -Chloro-2-fluoro-6-(methylsulfonyl)phenyl)-3-methyl-N-(1-((4-methyl-2-((1R,5S)-2-oxo-3-azabicyclo[3.1.0]hexan-3-yl)pyrimidin-5-yl)methyl)-1H-pyrazol-4-yl)pyrazine-2-carboxamide]
127 | 0.7 | Cc1ncc(-c2c(C(F)F)ccc(Cl)c2F)nc1C(=O)Nc1cnn(Cc2nnc(N3C[C@H]4C[C@H]4C3=O)c(C)c2C)c1 [Example 88, 6-(3-Chloro-6-(difluoromethyl)-2-fluorophenyl)-N-(1-((4,5-dimethyl-6-((1R,5S)-2-oxo-3-azabicyclo[3.1.0]hexan-3-yl)pyridazin-3-yl)methyl)-1H-pyrazol-4-yl)-3-methylpyrazine-2-carboxamide]
2580 | 1.3 | Cc1ncc(-c2c(C(F)F)ccc(Cl)c2F)nc1C(=O)Nc1cnn(C(C)c2cnc(N3C[C@H]4C[C@H]4C3=O)c(Cl)c2)c1 (stereo partly drawn) [Example 91, N-(1-((S)-1-(5-chloro-6-((1R,5S)-2-oxo-3-azabicyclo[3.1.0]hexan-3-yl)pyridin-3-yl)ethyl)-1H-pyrazol-4-yl)-6-(3-chloro-6-(difluoromethyl)-2-fluorophenyl)-3-methylpyrazine-2-carboxamide]
577 | 1.3 | Cc1ncc(-c2c(C(F)F)ccc(Cl)c2F)nc1C(=O)Nc1cnn(C(C)c2cnc(N3C[C@H]4C[C@H]4C3=O)c(Cl)c2)c1 (stereo partly drawn) [Example 92, N-(1-((S)-1-(5-chloro-6-((1R,5S)-2-oxo-3-azabicyclo[3.1.0]hexan-3-yl)pyridin-3-yl)ethyl)-1H-pyrazol-4-yl)-6-(3-chloro-6-(difluoromethyl)-2-fluorophenyl)-3-methylpyrazine-2-carboxamide]
> 10000 | 19.9 | Cc1nc(Cn2cc(NC(=O)c3nc(-c4c(C(F)F)ccc(Cl)c4F)cnc3C)cn2)ncc1N1C[C@H]2C[C@H]2C1=O [Example 93, 6-(3-Chloro-6-(difluoromethyl)-2-fluorophenyl)-3-methyl-N-(1-((4-methyl-5-((1R,5S)-2-oxo-3-azabicyclo[3.1.0]hexan-3-yl)pyrimidin-2-yl)methyl)-1H-pyrazol-4-yl)pyrazine-2-carboxamide]
1010 | 1.6 | Cc1nc(Cn2cc(NC(=O)c3nc(-c4c(C(F)F)ccc(Cl)c4F)cnc3C(F)F)cn2)cnc1N1C[C@H]2C[C@H]2C1=O [Example 94, 6-(3-Chloro-6-(difluoromethyl)-2-fluorophenyl)-3-(difluoromethyl)-N-(1-((6-methyl-5-((1R, 5S)-2-oxo-3-azabicyclo[3.1.0]hexan-3-yl)pyrazin-2-yl)methyl)-1H-pyrazol-4-yl)pyrazine-2-carboxamide]
